In article PMC8410435, “Evaluation of Neuraminidase Inhibitory Activity of Compounds and Extracts from Traditional Medicines by HPLC-FLD” (International Journal of Analytical Chemistry, 2021):

Biological target: T1, neuraminidase (NA), from Sigma-Aldrich
T1 construct: gene nanH
Format: biochemical
Conditions: read-out: HPLC-FLD

Row | SMILES | IC50 [mM]
1 | O=c1ccc2cc3ccoc3cc2o1 [compound 10, Psoralen] | 1 ± 0.63
2 | COc1ccc2ccc(=O)oc2c1CC=C(C)C [compound 14, Osthole] | 2.14 ± 0.15
3 | O=C(O)[C@H]1O[C@@H](Oc2cc3oc(-c4ccccc4)cc(=O)c3c(O)c2O)[C@H](O)[C@@H](O)[C@@H]1O [compound 7, Baicalin] | 0.5 ± 0.04
4 | O=C(/C=C/c1ccc(O)c(O)c1)O[C@H]1[C@H](O)C[C@](O)(C(=O)O)C[C@H]1O [compound 4, Cryptochlorogenin acid] | 2.2 ± 0.01
5 | O=c1cc(-c2ccccc2)oc2cc(O)c(O)c(O)c12 [compound 8, Baicalein] | 0.11 ± 0.01
6 | O=C(/C=C/c1ccc(O)c(O)c1)O[C@@H]1C[C@](O)(C(=O)O)C[C@@H](O)[C@H]1O [compound 3, Chlorogenic acid] | 2.56 ± 0.06
7 | COc1c2ccoc2cc2oc(=O)ccc12 [compound 13, Bergapten] | 2.8 ± 0.16
8 | O=C(/C=C/c1ccc(O)c(O)c1)O[C@@H]1[C@H](O)C[C@@](O)(C(=O)O)C[C@H]1OC(=O)/C=C/c1ccc(O)c(O)c1 [compound 6, Isochlorogenic acid C] | 1.17 ± 0.05
9 | CC(C)=CCOc1c2ccoc2cc2oc(=O)ccc12 [compound 9, Isoimpemtorin] | 0.66 ± 0.16
10 | COC(=O)C1=CO[C@@H](O[C@@H]2O[C@H](CO)[C@@H](O)[C@H](O)[C@H]2O)[C@@H]2C(CO)=CC[C@H]12 [compound 1, Geniposide] | 0.97 ± 0.09
11 | O=c1ccc2cc3ccoc3c(O)c2o1 [compound 12, Xanthotol] | 1.05 ± 0.07

Same assay, conditions: read-out: NA enzyme-based inhibitory assays

Row | SMILES | IC50 [mM]
12 | COC(=O)C1=CO[C@@H](O[C@@H]2O[C@H](CO)[C@@H](O)[C@H](O)[C@H]2O)[C@H]2[C@@H]1[C@H](O)C[C@]2(C)O [compound 2, Shanzhiside methyl ester] | 0.01

Biological target: T1, neuraminidase (NA), from Sigma-Aldrich
Format: biochemical
Conditions: read-out: HPLC-FLD
Remark: another data set of the same source

Row | SMILES | IC50 [mM]
13 | O=c1ccc2ccc3occc3c2o1 [compound 11, Angelicin] | 2.55 ± 0.38
